Legend:
Aphis craccivora = test: Insecticidal activity against Aphis craccivora by immersing (mortality after 24 hours); type: in vivo; conditions: for Mortality (%) (500 ppm) Aphis craccivora: in vivo; for mortality at 500 ppm: Aphis craccivora, 24 h, read-out: Mortality (%) (500 ppm) Aphis craccivora
Protocol: Aphis, which belongs to Homoptera and has a piercing-sucking mouthpart, is a common insect for agricultural plant. Aphis craccivora was tested by the way of immersing.
Test method: exactly weighed various samples were independently added to N,N-dimethylformamide to form a 10 g/L stock solution. The mixture was diluted with 0.2 mL/L aqueous Triton X-100 solution to a concentration of 500 ug/mL. After stably sucking on bean sprout, the adult aphis without wings together with bean sprout was dipped into the dilution of 500 ug/mL, 100 ug/mL, 50 ug/mL, 25 ug/mL, 12.5 ug/mL, 6.25 ug/mL (LD50 was calculated), taken out after 5 seconds, and the excess dilution was sucked out with bibulous paper and the adult aphis without wings was incubated in clean vessel at a constant temperature of 23° C. Each concentration was repeated for 3 times and the control group contained 0.2 mL/L aqueous Triton X-100 solution. The number of killed aphis was counted after 24 hours to calculate the mortality.

Nilaparvata lugens = test: Insecticidal activity against Nilaparvata lugens by spraying (mortality after 24 hours); type: in vivo; conditions: for Mortality (%) (500 ppm) Nilaparvata lugens: spraying 2 ml, counted after 24 hours; for mortality at 500 ppm: Nilaparvata lugens, 24 h, read-out: Mortality (%) (500 ppm) Nilaparvata lugens
Protocol: Plant hopper, which belongs to Homoptera and has a piercing-sucking mouthpart, is a common insect for agricultural plant. Nilaparvata lugens was tested by the way of spraying.
Test method: the compound to be tested was exactly formulated into a solution having a certain concentration and clean water was used as a blank control. Each process was repeated for 3 tumblers (3 times). 2 ml of solution was sprayed uniformly to each tumbler by a mini manual sprayer. 10 Nilaparvata lugens were introduced to every sink 6 hours before spraying. Three series of experiments were conducted. The number of killed Nilaparvata lugens was counted after 24 hours to calculate the mortality.

Row | SMILES | Mortality (%) (500 ppm) Aphis craccivora (Aphis craccivora) | Mortality (%) (500 ppm) Nilaparvata lugens (Nilaparvata lugens) | mortality at 500 ppm (Aphis craccivora) [%] | mortality at 500 ppm (Nilaparvata lugens) [%]
1 | COC1CC(C)(C)C([N+](=O)[O-])=C2N(Cc3ccc(Cl)nc3)CCN21 (stereo not shown) [Compound 32] | 100 | 100 | – | –
2 | CCC1C(C)C([N+](=O)[O-])=C2N(Cc3ccc(Cl)nc3)CCN2C1O (stereo not shown) [Compound 33] | 92 | 78 | – | –
3 | CCCC1C(C)C([N+](=O)[O-])=C2N(Cc3ccc(Cl)nc3)CCN2C1O (stereo not shown) [Compound 34] | 95 | 90 | – | –
4 | CCC1C([N+](=O)[O-])=C2N(Cc3ccc(Cl)nc3)CCN2C(O)C1C (stereo not shown) [Compound 35] | 100 | 88 | – | –
5 | CC1C(O)N2CCN(Cc3ccc(Cl)nc3)C2=C([N+](=O)[O-])C1(C)C (stereo not shown) [Compound 36] | 94 | 97 | – | –
6 | CCC1C(O)N2CCN(Cc3ccc(Cl)nc3)C2=C([N+](=O)[O-])C1(C)C (stereo not shown) [Compound 37] | 99 | 88 | – | –
7 | O=[N+]([O-])C1=C2N(Cc3ccc(Cl)nc3)CCN2C(O)CC1c1ccccc1 (stereo not shown) [Compound 38, 1-((6-chloropyridin-3-yl)methyl)-8-nitro-7-phenyl-1,2,3,5,6,7-hexahydroimidazo[1,2-a]pyridin-5-ol] | – | – | 24 | 0
8 | COC1CC(c2ccccc2)C([N+](=O)[O-])=C2N(Cc3ccc(Cl)nc3)CCN21 (stereo not shown) [Compound 39] | 45 | 0 | – | –
9 | CCCCC1CC(O)N2CCN(Cc3ccc(Cl)nc3)C2=C1[N+](=O)[O-] (stereo not shown) [Compound 41] | 72 | 50 | – | –
10 | COC1CC(O)N2CCN(Cc3ccc(Cl)nc3)C2=C1[N+](=O)[O-] (stereo not shown) [Compound 42, 1-((6-chloropyridin-3-yl)methyl)-7-methoxy-8-nitro-1,2,3,5,6,7-hexahydroimidazo[1,2-a]pyridin-5-ol] | – | – | 100 | 97
11 | COC1C([N+](=O)[O-])=C2N(Cc3ccc(Cl)nc3)CCN2C(O)C1C (stereo not shown) [Compound 43] | 100 | 97 | – | –
12 | COC1CC(O)N2CCN(Cc3cnc(Cl)s3)C2=C1[N+](=O)[O-] (stereo not shown) [Compound 44] | 100 | 97 | – | –
13 | CCOC1CC(O)N2CCN(Cc3ccc(Cl)nc3)C2=C1[N+](=O)[O-] (stereo not shown) [Compound 45] | 100 | 89 | – | –
14 | COC1CC([N+](=O)[O-])=C2N(Cc3ccc(Cl)nc3)CCN2C1O (stereo not shown) [Compound 46, 1-((6-chloropyridin-3-yl)methyl)-6-methoxy-8-nitro-1,2,3,5,6,7-hexahydroimidazo[1,2-a]pyridin-5-ol] | – | – | 100 | 73
15 | CCOC1CC([N+](=O)[O-])=C2N(Cc3ccc(Cl)nc3)CCN2C1O (stereo not shown) [Compound 47] | 98 | 91 | – | –
16 | COC1CC([N+](=O)[O-])=C2N(Cc3cnc(Cl)s3)CCN2C1O (stereo not shown) [Compound 48] | 85 | 90 | – | –
17 | COC1C(C)C([N+](=O)[O-])=C2N(Cc3ccc(Cl)nc3)CCN2C1O (stereo not shown) [Compound 49] | 100 | 100 | – | –
